Experimental findings from article PMC11040665, “Aminothiazolone Inhibitors Disrupt the Protein–RNA Interaction of METTL16 and Modulate the m^6A RNA Modification” (JACS Au, 2024) are described below.

Data set [1] concerns the target T1, methyltransferase activity of METTL16 MTD toward MAT2A-hp1 (Homo sapiens, UniProt Q86W50).
T1 construct: METTL16 MTD (1–291) was subcloned to pOPINB plasmid; His tag followed by HRV 3C cleavage site (N, cleaved yes); made in house; host or cells: E. coli Rosetta (DE3)
T1 sequence (Q86W50 1-291): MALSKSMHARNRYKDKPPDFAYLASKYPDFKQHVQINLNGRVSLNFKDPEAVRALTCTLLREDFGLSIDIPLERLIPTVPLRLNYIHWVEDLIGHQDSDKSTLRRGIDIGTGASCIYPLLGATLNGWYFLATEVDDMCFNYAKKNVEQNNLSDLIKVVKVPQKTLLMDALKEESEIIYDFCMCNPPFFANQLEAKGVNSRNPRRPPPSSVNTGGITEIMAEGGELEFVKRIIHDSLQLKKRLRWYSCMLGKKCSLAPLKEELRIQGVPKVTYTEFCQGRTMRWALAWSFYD
Briefly: In vitro methylation assay (MTase Glo). It counts as biochemical. Conditions: for inhibition of the methyltransferase activity of METTL16 MTD, in words: RNA substrate MAT2A-hp1. How it is done:
Next, we evaluated the inhibition of the METTL16 methylation using the MTase Glo assay kit (Promega) measuring the methyltransferase activity based on the formation of the methylation product S-adenosyl homocysteine, which was converted to ADP by the MTase-Glo reagent to trigger a subsequent luciferase reaction (Figure 5E).
The methyltransferase activity of METTL16 MTD was measured using an MTase Glo kit (Promega V7601) following the manufacturer’s instructions. The reaction was carried out in white 384-well plates (Corning #3824), with a total methyltransferase reaction volume of 8 μL, and the final concentrations of METTL16 MTD, MAT2A-hp1, and SAM were 1, 1, and 10 μM, respectively, and 1% of DMSO was used as a control. […] To use SAM at a different final concentration, the concentration of SAM was adjusted accordingly in a 2× substrate solution.

In data set [2] the target is T2, METTL16 MTD–U6 snRNA Δ interaction (Homo sapiens, UniProt Q86W50).
T2 construct: METTL16 MTD (1–291) was subcloned to pOPINB plasmid; His tag followed by HRV 3C cleavage site (N, cleaved yes); made in house; host or cells: E. coli Rosetta (DE3)
T2 sequence (Q86W50 1-291): T1 sequence (Q86W50 1-291)
Briefly: FP assay with Cy5-labeled U6 snRNA Δ. It counts as binding.

The target of a further data set is T3, METTL16 (1-291) (Homo sapiens, UniProt Q86W50).
T3 construct: METTL16 MTD (1–291) was subcloned to pOPINB plasmid; His tag followed by HRV 3C cleavage site (N, cleaved yes); made in house; host or cells: E. coli Rosetta (DE3)
T3 sequence (Q86W50 1-291): T1 sequence (Q86W50 1-291)
The experiment in a line: Covalent binding evaluation by protein LC–MS. To be noted: 30 μM METTL16 (1-291), 100 μM compound, 30 or 150 min. How it is done: To evaluate whether the aminothiazolones covalently bind to METTL16, we performed the LC–MS analysis after incubating the protein with aminothiazolones for 30 and 150 min, respectively. In the case of covalent binding, we would expect to observe the formation of covalent adducts, which would accrue over time. […] Besides the LC–MS analysis result, an irreversible inhibition counter screening indicated the reversible inhibitory activity of the aminothiazolones (Figure S8A).
Figure S7. Covalent evaluation of METTL16 inhibitors via LC-MS. (A) Deconvoluted mass spectrum of 30 µM METTL16 (1-291) incubated with 1% DMSO for 30 min (left) and 150 min (right). (B), (C), (D) Deconvoluted […]
(right). Expected Mass for METTL16 (1-291), 33455.7 Da. The observed small mass shift of ~50 Da appeared in both the DMSO control and compound-treated samples was probably formed by the solvent used in the LC-MS.
(1 picture or pasted object on this page, not shown here)
For computational docking analysis of aminothiazolones to the RNA binding site of METTL16 (PDB code: 6B91)2 Schrödinger® Maestro 12.3 was used. […]
Chemical states were generated with the ligand preparation module and METTL16 conformation with the protein preparation module. […] The glide dock module was used and the results were evaluated according to interactions between small molecules and METTL16, small molecule orientations, docking scores and solvent exposure patterns. […]
METTL16 MTD protein was diluted in SEC buffer (20mM pH 7.5, 200 mM NaCl, 0.5 mM TCEP,5% v/v glycerol) to a final concentration of 30 µM, and incubated with DMSO or 100 μM compound (final 1% DMSO) at room temperature. After incubation (30 min or 150 min), the samples were analyzed on an Agilent 1260 II Infinity system equipped with an electrospray ion source in positive mode, run through a Desalting cartridge (AdvanceBio Desalting-RP, 2.1 mm, 12.5mm, Agilent) with a gradient of 5-80% HPLC-grade acetonitrile (+ 0.1% TFA) in HPLC-grade water (+ 0.1% TFA) (flowrate: 0.4 mL/min, runtime: 6 min). […]

Data set [3] concerns the target T4, METTL16 (1-291)–FAM-MAT2A-hp1 RNA (Homo sapiens, UniProt Q86W50).
T4 construct: METTL16 MTD (1–291) was subcloned to pOPINB plasmid; His tag followed by HRV 3C cleavage site (N, cleaved yes); made in house; host or cells: E. coli Rosetta (DE3)
T4 sequence (Q86W50 1-291): T1 sequence (Q86W50 1-291)
The experiment in a line: FP assay after incubating SAM with METTL16. It counts as binding. To be noted: SAM incubated with METTL16 before the FP assay.

Another data set deals with MDA-MB-231 cells. Briefly: Colony formation assay. Conditions: 7 days, three tested concentrations. It counts as cell-based, human. How it is done:
MDA-MB-231 cells were collected and seeded with the density of 1000 cells per well into 24-well plates; after being cultured overnight, the medium was exchanged and treated with indicated compounds or DMSO (0.5%) as the control. The medium change and treatment were performed every 3 days. After 7 days, the cell culture medium was discarded, and cells were washed with PBS and fixed with 4% paraformaldehyde solution at room temperature for 15 min; the paraformaldehyde solution was removed, and cells were washed with PBS again to remove the paraformaldehyde. Then cells were stained with 0.1% (w/v) crystal violet. After staining for 15 min, the cells were washed with H2O to remove the extra dye and then photographed.

Data set [4] has as its target T5, METTL16 MTD–GGACU-containing RNA interaction (Homo sapiens, UniProt Q86W50).
T5 sequence (Q86W50 1-291): T1 sequence (Q86W50 1-291)
Briefly: EMSA with GGACU-containing RNA. Conditions: 5 nM RNA, 600 nM METTL16 MTD. For orientation: A gel shift assay detects complexes by their altered migration in electrophoresis.
Procedure: METTL16 MTD protein (1–291) was incubated with the indicated compound or DMSO in a buffer containing 20 mM HEPES, pH 7.5, 50 mM NaCl, 0.05% v/v Tween 20, and 0.05 mg/mL BGG at room temperature for 30 min; subsequently, FAM-MAT2A-hp1 RNA probe was added and incubated at room temperature for 10 min, the final of protein and RNA are 50 and 5 nM respectively, and 1% DMSO was used as the control. […] The gel was detected and imaged by Chemi Doc MP (Bio-Rad). […] EMSA for testing compounds with GGAUC-motif containing RNA and METTL16 MTD interaction was performed using the method described above, expecting that the final of METTL16 MTD protein and FAM-labeled-GGACU RNA are 600 nM and 5 nM respectively. EMSA for RNA binding: indicated concentrations of fluorophore-labeled RNA were incubated with indicated concentrations of protein in EMSA buffer for 15 min at room temperature, then loaded to native PAGE gels and imaged with the method described above.

The target of data set [5] is T6, METTL16–MAT2A-hp1 mRNA interaction (METTL16 MTD 1–291, FAM-labeled MAT2A-hp1 RNA) (Homo sapiens, UniProt Q86W50).
T6 sequence (Q86W50 1-291): T1 sequence (Q86W50 1-291)
The experiment in a line: Fluorescence polarization (FP) assay, disruption of METTL16 binding to FAM-MAT2A-hp1 RNA. Background: Polarisation of emitted light reports the rotation of a fluorescent probe.
Procedure: The binding of METTL16 to the FAM-labeled RNA probe formed a complex that led to a higher FP signal in comparison to that of the unbound RNA probe (Figure 2A). […] The Z-factor of 0.91 indicated the suitability of the assay condition (Figure S2D). […] In both FP assay and EMSA, a final concentration of 50 nM METTL16 and 5 nM FAM-MAT2A-hp was used. The METTL16 MTD (amino acids 1–291) was used in this study unless specifically indicated otherwise.
The FP assay was performed using 384-well black plates (Corning #4514) in a total reaction volume of 20 μL, with the final concentration of protein and RNA being 50 and 5 nM respectively. Compounds were diluted in FP buffer and incubated with protein for 30 min at room temperature, then FAM-MAT2A-hp1 RNA probe was added and the fluorescence polarization was measured using a TECAN Spark plate reader, under the excitation wavelength of 485 nm and the emission wavelength of 535 nm with bandwidth of 20 nm. 1% DMSO was used as the control. The inhibition was calculated with the equation: inhibition = 100%(Control – X)/(Control – Blank); Control: DMSO with protein and FAM-RNA; Blank: DMSO with FAM-RNA; X: compound with protein and FAM-RNA. The IC50 value was further determined using GraphPad Prism 9. […] The polarization was measured under an excitation wavelength of 630 nm and an emission wavelength of 680 nm with a bandwidth of 20 nm.

Entries after “also recorded” stand apart in the source; their conditions may differ.

As a reminder, the IC50 is the point on the concentration scale where inhibition reaches its midpoint. A low value points to higher potency. Turning to `CN1C(=O)C(=C2SC(NS(=O)(=O)c3ccc(C(=O)O)cc3)=NC2=O)c2cc(Br)ccc21` [Compound 45], the “inhibition of the methyltransferase activity of METTL16 MTD, in words” value in data set [1] was “dose-dependently inhibited”. Moreover, the results for the IC50 in data set [2] and in data set [5] were 2500 nM and 1700 nM, respectively. Besides, on METTL16 (1-291), the “covalent adduct formation with METTL16 (LC–MS)” value is listed as “no such covalent adduct with a mass shift was observed”. In addition, the “IC50 under different SAM concentrations (FP assay), in words” value in data set [3] is reported as “remained”. Moreover, the “inhibition on colony formation, in words” value in the data set on MDA-MB-231 cells was “did not show obvious inhibition on colony formation”. The “inhibition of METTL16–GGACU RNA binding in EMSA, in words” value in data set [4] is “dose-dependently inhibited”.

What is called inhibition is the share of the control response that was lost under treatment. Low values mean little suppression, high ones strong suppression. On to `O=C1N=C(NS(=O)(=O)c2ccc(C(=O)O)cc2)SC1=C1C(=O)Nc2ccc(Br)cc21` [Compound 47], for which, in data set [1], the “inhibition of the methyltransferase activity of METTL16 MTD, in words” value was “dose-dependently inhibited; also recorded: potent inhibitory activity”. In data set [1] (at 50 μM, 1 μM METTL16 MTD, 1 μM MAT2A-hp1, 10 μM SAM), this compound came in with an inhibition at 50 µM of over 50%. In addition, the IC50 was determined as 6400 nM in data set [2] and 2100 nM in data set [5]. For the same compound, the “covalent adduct formation with METTL16 (LC–MS)” value on METTL16 (1-291) is recorded as “no such covalent adduct with a mass shift was observed”. In addition, the “IC50 under different SAM concentrations (FP assay), in words” value in data set [3] is reported as “remained”. Moreover, the “inhibition on colony formation, in words” value in the data set with MDA-MB-231 cells is “mild inhibitory activity against colony formation”. Also, in data set [4], the “inhibition of METTL16–GGACU RNA binding in EMSA, in words” value is recorded as “dose-dependently inhibited”.
